# Measured values reported in patent US20250319145A1, “EXTRACT WITH ANTI-INFLAMMATORY EFFECT” (Medizinische Universitat Innsbruck, priority 2021, published 2025).
# Experiments:
# [1] = tested on: reconstructed human epidermis (RHE)-models; experiment: Cytokine release in reconstituted human epidermis model after TNFα; assay type: cell-based; conditions: 0.75 ng/ml TNFα, extract 10 μg/ml in medium, 24 h and 48 h
# Experimental: The bioactivity of the extract of Chromochloris zofingiensis (2022C) was tested in human epidermis equivalents by measuring cytokine secretion in response to TNFα treatment.
# The extract was tested in a physiological relevant set-up represented by reconstructed human epidermis (RHE)-models (FIG. 2), (W. Pixelproduction, epiCS—CellSystems GmbH. [Online]. Available: https://cellsystems.de/cells-and-media/c/epics (accessed: Oct. 2 2020)), purchased from Cell Systems. epiCS RHE models are validated for the classification of compounds according to the OECD test guideline 431. […]
# The secretion of relevant pro-inflammatory cytokines of RHE-models (from Cell Systems Biotechnology), were quantified after induction with 0.75 ng/ml TNFα and treatment with DMSO, WFA or the extract of Chromochloris zofingiensis in a concentration of 10 μg/ml in DMSO.
# After culturing the keratinocyte cell layer in cell culture inserts (0.6 cm^2) under submerged conditions, the tissues were lifted to the air-liquid interphase to induce differentiation, epithelial stratification and cornification. […] The cytokine release was evaluated 24 h and 48 h after the TNFα treatment. The secretion of the cytokines IL-1ra, RANTES, IL-1α, GM-CSF, TSLP, IP-10, IL-18, IL-6, IL-8, IL-10, MCP-1, IL-1β, TNFα and INF-β was measured. […]
# [2] = target: T1, IKKβ Kinase (Homo sapiens, UniProt O14920); experiment: In vitro immunoprecipitation IKKβ kinase assay with IκBα as substrate (autoradiography); assay type: biochemical; conditions: 1.6, 2.8 and 6% vs DMSO control; FIG. 9
# T1 construct: made in house; host or cells: HEK 293T cells (transient transfection, anti-HA immunoprecipitation)
# T1 sequence (O14920 1-756): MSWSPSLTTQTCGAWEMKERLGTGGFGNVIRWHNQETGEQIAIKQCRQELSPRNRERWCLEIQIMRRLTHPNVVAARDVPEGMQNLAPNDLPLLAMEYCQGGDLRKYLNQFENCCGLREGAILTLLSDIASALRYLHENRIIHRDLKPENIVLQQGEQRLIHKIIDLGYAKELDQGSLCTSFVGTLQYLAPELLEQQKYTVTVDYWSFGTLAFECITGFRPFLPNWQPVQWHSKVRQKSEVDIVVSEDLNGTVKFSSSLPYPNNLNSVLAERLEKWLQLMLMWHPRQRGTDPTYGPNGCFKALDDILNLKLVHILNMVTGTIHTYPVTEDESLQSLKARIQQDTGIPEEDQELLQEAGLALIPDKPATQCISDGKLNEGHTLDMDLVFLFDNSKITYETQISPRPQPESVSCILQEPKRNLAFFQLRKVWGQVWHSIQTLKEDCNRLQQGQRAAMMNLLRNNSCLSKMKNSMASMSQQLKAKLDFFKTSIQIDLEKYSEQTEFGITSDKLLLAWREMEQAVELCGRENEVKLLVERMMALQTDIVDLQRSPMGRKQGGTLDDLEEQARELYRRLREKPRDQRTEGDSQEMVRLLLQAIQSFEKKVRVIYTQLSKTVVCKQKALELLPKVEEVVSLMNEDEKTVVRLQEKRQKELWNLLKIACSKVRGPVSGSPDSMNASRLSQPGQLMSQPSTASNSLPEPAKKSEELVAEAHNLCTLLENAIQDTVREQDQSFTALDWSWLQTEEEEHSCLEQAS
# Experimental: The IKK complex subunit IKKβ is responsible for the phosphorylation of IκBα and it's targeting for degradation upon TNFα induction. Therefore, it has been investigated whether the extracts inhibit IKKβ. […] The kinase assay was based on quantifying the activity of the kinase IKKβ via autoradiography.
# Specifically, HEK 293T cells were transfected with the HA-IKKβ construct. Cells were washed with ice-cold phosphate-buffered saline (PBS) and extracted with lysis buffer containing 50 mM HEPES (pH 7.5), 150 mM NaCl, 1% (vol/vol) Nonidet P-40, 2 mM EDTA, 50 mM sodium fluoride, 10 mM sodium pyrophosphate, 1 mM sodium orthovanadate, 50 μg of leupeptin (Boehringer Mannheim)/ml, 0.5% aprotinin (Sigma), 1 mM phenylmethylsulphonyl fluoride (Sigma), and 3 mM benzamidine (Sigma). 300 ng of total protein were immunoprecipitated with 2 μg of anti-HA antibodies and immune complexes were collected using protein A-Sepharose beads (Amersham Pharmacia Biotech). Immune complexes were washed three times with lysis buffer followed by a single wash with high salt buffer (500 mM NaCl) and kinase assay buffer (50 mM HEPES [pH 7.5], 10 mM MgCl2, 1 mM dithiothreitol, 10 mM β-glycerophosphate). […] Samples were subjected to 10% SDS-PAGE, and the amount of ^32P incorporated into the IKKβ and IκBα proteins was assessed by autoradiography (FIG. 4). […]
compound,measurement,setting,value
"CC1=C(CO)C(=O)O[C@@H]([C@@H](C)[C@H]2CC[C@H]3[C@@H]4C[C@H]5O[C@]56[C@@H](O)C=CC(=O)[C@]6(C)[C@H]4CC[C@]23C)C1 [WFA, Withaferin A]","release of IL-10, MCP-1, IP-10 and RANTES",[1],substantial decrease
"diacylglyceryl-N,N,N-trimethylhomoserine [DGTS]",direct inhibition of the IKKβ kinase,[2],no inhibition
